Experiments:
Adult male Wistar rats = assay: In vivo feeding after ICV injection, rodent chow consumed in 2 hours; set-up: species or system rat; settings: for Feeding (g/2 h): rats, ICV, 1-6 nmoles peptide, chow consumed in 2 hours, saline <3 g/2 hours
Method: Adult male Wistar rats were surgically implanted with a chronic intracerebral ventricular (ICV) cannula (Plastic Products, Roanoke, Va.) using a stereotaxic instrument. Several days after the surgery, 1-6 nmoles of each peptide (or saline) was injected into the lateral ventricle of 4-12 rats in a volume of 5-10 μl The quantity of rodent chow consumed in a 2 hour period was measured.

Rat Y4/PP1 (clone) = Rat Y4/PP1 (clone) (Rattus norvegicus, UniProt Q63447); assay: Rat Y4/PP1 [125I]PP binding assay
Sequence of Rat Y4/PP1 (clone) (Q63447 whole entry): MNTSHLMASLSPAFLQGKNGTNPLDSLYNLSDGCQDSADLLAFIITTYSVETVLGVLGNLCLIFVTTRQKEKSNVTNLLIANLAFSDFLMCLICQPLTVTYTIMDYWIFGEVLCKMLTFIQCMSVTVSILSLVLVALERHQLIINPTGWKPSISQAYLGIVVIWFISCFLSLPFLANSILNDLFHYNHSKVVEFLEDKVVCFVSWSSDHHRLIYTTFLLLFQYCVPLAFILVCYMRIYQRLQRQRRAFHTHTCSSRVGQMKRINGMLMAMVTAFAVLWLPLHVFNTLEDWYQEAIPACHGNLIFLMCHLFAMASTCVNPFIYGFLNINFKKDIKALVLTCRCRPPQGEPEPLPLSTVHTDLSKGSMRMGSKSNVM

| Compound | Feeding (g/2 h) (Adult male Wistar rats) | feeding response in rats (Adult male Wistar rats; administered ICV to rats) | affinity for the rat Y4/PP1 receptor (Rat Y4/PP1 (clone)) |
| --- | --- | --- | --- |
| CC[C@H](C)[C@H](NC(=O)[C@H](Cc1ccc(O)cc1)NC(=O)[C@H](Cc1c[nH]cn1)NC(=O)[C@H](CCCNC(=N)N)NC(=O)[C@H](CC(C)C)NC(=O)[C@H](C)NC(=O)[C@@H](N)CO)C(=O)N[C@@H](CC(N)=O)C(=O)N[C@@H](CC(C)C)C(=O)N[C@H](C(=O)N[C@H](C(=O)N[C@@H](CCCNC(=N)N)C(=O)N[C@@H](CCC(N)=O)C(=O)N[C@@H](CCCNC(=N)N)C(=O)N[C@@H](Cc1ccc(O)cc1)C(N)=O)[C@@H](C)O)[C@@H](C)CC [r/h(22-36)NPY, (22-36)NPY] | < 3 |  |  |
| CC[C@H](C)[C@H](NC(=O)[C@H](Cc1ccc(O)cc1)NC(=O)[C@@H](N)Cc1c[nH]cn1)C(=O)N[C@@H](CC(N)=O)C(=O)N[C@@H](CC(C)C)C(=O)N[C@H](C(=O)N[C@H](C(=O)N[C@@H](CCCNC(=N)N)C(=O)N[C@@H](CCC(N)=O)C(=O)N[C@@H](CCCNC(=N)N)C(=O)N[C@@H](Cc1ccc(O)cc1)C(N)=O)[C@@H](C)O)[C@@H](C)CC [r/h(26-36)NPY, (26-36)NPY] | < 3 |  |  |
| CC[C@H](C)[C@H](NC(=O)[C@H](Cc1ccc(O)cc1)NC(=O)[C@H](CCCNC(=N)N)NC(=O)[C@H](CCCNC(=N)N)NC(=O)[C@H](CC(C)C)NC(=O)[C@H](CC(=O)O)NC(=O)[C@H](C)NC(=O)[C@H](C)NC(=O)[C@H](Cc1ccc(O)cc1)NC(=O)[C@H](CCC(N)=O)NC(=O)[C@H](C)NC(=O)[C@H](CCSC)NC(=O)[C@H](CCC(N)=O)NC(=O)[C@H](CCC(=O)O)NC(=O)[C@@H]1CCCN1C(=O)[C@@H](NC(=O)[C@H](C)NC(=O)[C@H](CC(N)=O)NC(=O)[C@H](CC(=O)O)NC(=O)CNC(=O)[C@@H]1CCCN1C(=O)[C@H](Cc1ccc(O)cc1)NC(=O)[C@@H](NC(=O)[C@@H]1CCCN1C(=O)[C@H](CCC(=O)O)NC(=O)[C@H](CC(C)C)NC(=O)[C@@H]1CCCN1C(=O)[C@H](C)N)C(C)C)[C@@H](C)O)C(=O)N[C@@H](CC(N)=O)C(=O)N[C@@H](CCSC)C(=O)N[C@@H](CC(C)C)C(=O)N[C@H](C(=O)N[C@@H](CCCNC(=N)N)C(=O)N1CCC[C@H]1C(=O)N[C@@H](CCCNC(=N)N)C(=O)N[C@@H](Cc1ccc(O)cc1)C(N)=O)[C@@H](C)O [rPP, pancreatic polypeptide] | < 3 | does not induce much feeding | very high affinity |
| CC[C@H](C)[C@H](NC(=O)[C@H](Cc1ccc(O)cc1)NC(=O)[C@H](CCCNC(=N)N)NC(=O)[C@H](CCCNC(=N)N)NC(=O)[C@H](CC(C)C)NC(=O)[C@H](CC(=O)O)NC(=O)[C@H](C)NC(=O)[C@H](C)NC(=O)[C@H](Cc1ccc(O)cc1)NC(=O)[C@H](CCC(N)=O)NC(=O)[C@H](C)NC(=O)[C@H](CCSC)NC(=O)[C@H](CCC(N)=O)NC(=O)[C@H](CCC(=O)O)NC(=O)[C@@H]1CCCN1C(=O)[C@@H](NC(=O)[C@H](C)NC(=O)[C@H](CC(N)=O)NC(=O)[C@H](CC(=O)O)NC(=O)CNC(=O)[C@@H]1CCCN1C(=O)[C@H](Cc1ccc(O)cc1)NC(=O)[C@@H](NC(=O)[C@@H]1CCCN1C(=O)[C@H](CCC(=O)O)NC(=O)[C@H](CC(C)C)NC(=O)[C@@H]1CCCN1C(=O)[C@H](C)N)C(C)C)[C@@H](C)O)C(=O)N[C@@H](CC(N)=O)C(=O)N[C@@H](CCSC)C(=O)N[C@@H](CC(C)C)C(=O)N[C@H](C(=O)N[C@@H](CCCNC(=N)N)C(=O)N1CCC[C@H]1C(=O)N[C@@H](CCCNC(=N)N)C(=O)N[C@@H](Cc1ccc(O)cc1)C(N)=O)[C@@H](C)O [hPP, pancreatic polypeptide] | > 5 |  |  |
